Assay results published in ChEMBL document CHEMBL5335843, “Application of tobramycin benzyl ether as an antibiotic adjuvant capable of sensitizing multidrug-resistant Gram-negative bacteria to rifampicin” (2024).

Experiments:
Format in all cases: functional
Pseudomonas aeruginosa [1] = assay: Antibiotic adjuvant activity against multi-drug resistant Pseudomonas aeruginosa clinical isolate PA259 assessed as fold potentiation incubated for 18 hrs in presence of minocycline by two fold broth microdilution checkerboard assay
Pseudomonas aeruginosa [2] = assay: Antibiotic adjuvant activity against multi-drug resistant Pseudomonas aeruginosa clinical isolate PA259 assessed as rifampicin MIC incubated for 18 hrs in presence of Rifampicin by two fold broth microdilution checkerboard assay
Escherichia coli [3] = assay: Antibiotic adjuvant activity against Escherichia coli ATCC 25922 assessed as novobiocin MIC incubated for 18 hrs in presence of novobiocin by two fold broth microdilution checkerboard assay
Acinetobacter baumannii [4] = assay: Antibiotic adjuvant activity against multi-drug resistant Acinetobacter baumannii clinical isolate AB027 assessed as rifampicin MIC incubated for 18 hrs in presence of Rifampicin by two fold broth microdilution checkerboard assay
Escherichia coli [5] = assay: Antibiotic adjuvant activity against multi-drug resistant Escherichia coli clinical isolate EC107115 assessed as fractional inhibitory concentration index incubated for 18 hrs in presence of doxycycline by two fold broth microdilution checkerboard assay
Escherichia coli [6] = assay: Antibiotic adjuvant activity against Escherichia coli ATCC 25922 assessed as fold increase in MIC incubated for 18 hrs in presence of rifampicin and CAMHB Mg2+ media by two fold broth microdilution checkerboard assay
Pseudomonas aeruginosa [7] = assay: Antibacterial activity against multi-drug resistant Pseudomonas aeruginosa clinical isolate PA264 assessed as inhibition of bacterial growth incubated for 18 hrs by two fold broth microdilution assay
Pseudomonas aeruginosa [8] = assay: Antibiotic adjuvant activity against multi-drug resistant Pseudomonas aeruginosa clinical isolate PA114228 assessed as fold potentiation incubated for 18 hrs in presence of minocycline by two fold broth microdilution checkerboard assay
Pseudomonas aeruginosa [9] = assay: Antibiotic adjuvant activity against multi-drug resistant Pseudomonas aeruginosa clinical isolate PA101243 assessed as inhibition of bacterial growth incubated for 18 hrs in presence of doxycycline by two fold broth microdilution checkerboard assay
Acinetobacter baumannii [10] = assay: Antibacterial activity against multi-drug resistant Acinetobacter baumannii clinical isolate LAC-4 assessed as inhibition of bacterial growth incubated for 18 hrs by two fold broth microdilution assay
Pseudomonas aeruginosa [11] = assay: Antibiotic adjuvant activity against multi-drug resistant Pseudomonas aeruginosa clinical isolate PA259 assessed as minocycline MIC incubated for 18 hrs in presence of minocycline by two fold broth microdilution checkerboard assay
Escherichia coli [12] = assay: Antibiotic adjuvant activity against multi-drug resistant Escherichia coli clinical isolate EC107115 assessed as fold potentiation incubated for 18 hrs in presence of minocycline by two fold broth microdilution checkerboard assay
Pseudomonas aeruginosa [13] = assay: Antibiotic adjuvant activity against multi-drug resistant Pseudomonas aeruginosa clinical isolate PA262 assessed as fractional inhibitory concentration index incubated for 18 hrs in presence of minocycline by two fold broth microdilution checkerboard assay
Escherichia coli [14] = assay: Antibiotic adjuvant activity against multi-drug resistant Escherichia coli clinical isolate EC94474 assessed as fractional inhibitory concentration index incubated for 18 hrs in presence of minocycline by two fold broth microdilution checkerboard assay
Pseudomonas aeruginosa [15] = assay: Antibiotic adjuvant activity against multi-drug resistant Pseudomonas aeruginosa clinical isolate PA101243 assessed as minocycline MIC incubated for 18 hrs in presence of minocycline by two fold broth microdilution checkerboard assay
Pseudomonas aeruginosa [16] = assay: Antibiotic adjuvant activity against multi-drug resistant Pseudomonas aeruginosa clinical isolate PA259 assessed as fold potentiation incubated for 18 hrs in presence of Rifampicin by two fold broth microdilution checkerboard assay
Escherichia coli [17] = assay: Antibiotic adjuvant activity against multi-drug resistant Escherichia coli clinical isolate 107115 assessed as fractional inhibitory concentration index incubated for 18 hrs in presence of Rifampicin by two fold broth microdilution checkerboard assay
Pseudomonas aeruginosa [18] = assay: Antibiotic adjuvant activity against Pseudomonas aeruginosa PAO1 assessed as fold potentiation incubated for 18 hrs in presence of doxycycline by two fold broth microdilution checkerboard assay
Pseudomonas aeruginosa [19] = assay: Antibiotic adjuvant activity against multi-drug resistant Pseudomonas aeruginosa clinical isolate PA262 assessed as fold potentiation incubated for 18 hrs in presence of doxycycline by two fold broth microdilution checkerboard assay
Escherichia coli [20] = assay: Antibiotic adjuvant activity against multi-drug resistant Escherichia coli clinical isolate 94474 assessed as rifampicin MIC incubated for 18 hrs in presence of Rifampicin by two fold broth microdilution checkerboard assay
Acinetobacter baumannii [21] = assay: Antibiotic adjuvant activity against Acinetobacter baumannii ATCC 17978 assessed as rifampicin MIC incubated for 18 hrs in presence of Rifampicin by two fold broth microdilution checkerboard assay
Acinetobacter baumannii [22] = assay: Antibiotic adjuvant activity against multi-drug resistant Acinetobacter baumannii clinical isolate 92247 assessed as inhibition of bacterial growth incubated for 18 hrs in presence of Rifampicin by two fold broth microdilution checkerboard assay
Acinetobacter baumannii [23] = assay: Antibiotic adjuvant activity against Acinetobacter baumannii ATCC 17978 assessed as fold potentiation incubated for 18 hrs in presence of novobiocin by two fold broth microdilution checkerboard assay
Pseudomonas aeruginosa [24] = assay: Antibiotic adjuvant activity against multi-drug resistant Pseudomonas aeruginosa clinical isolate PA101243 assessed as inhibition of bacterial growth incubated for 18 hrs in presence of minocycline by two fold broth microdilution checkerboard assay
Acinetobacter baumannii [25] = assay: Antibiotic adjuvant activity against multi-drug resistant Acinetobacter baumannii clinical isolate LAC-4 assessed as inhibition of bacterial growth incubated for 18 hrs in presence of Rifampicin by two fold broth microdilution checkerboard assay
Pseudomonas aeruginosa [26] = assay: Antibiotic adjuvant activity against multi-drug resistant Pseudomonas aeruginosa clinical isolate PA264 assessed as fractional inhibitory concentration index incubated for 18 hrs in presence of Rifampicin by two fold broth microdilution checkerboard assay
Acinetobacter baumannii [27] = assay: Antibiotic adjuvant activity against Acinetobacter baumannii ATCC 17978 assessed as fold potentiation incubated for 18 hrs in presence of Rifampicin by two fold broth microdilution checkerboard assay
Escherichia coli [28] = assay: Antibiotic adjuvant activity against multi-drug resistant Escherichia coli clinical isolate EC94474 assessed as fractional inhibitory concentration index incubated for 18 hrs in presence of doxycycline by two fold broth microdilution checkerboard assay
Pseudomonas aeruginosa [29] = assay: Antibiotic adjuvant activity against multi-drug resistant Pseudomonas aeruginosa clinical isolate 114228 assessed as rifampicin MIC incubated for 18 hrs in presence of Rifampicin by two fold broth microdilution checkerboard assay
Enterobacterales = assay: Antibiotic adjuvant activity against Enterobacterales assessed as minocycline MIC incubated for 18 hrs in presence of minocycline by two fold broth microdilution checkerboard assay
Pseudomonas aeruginosa [30] = assay: Antibacterial activity against multi-drug resistant Pseudomonas aeruginosa clinical isolate PA101243 assessed as inhibition of bacterial growth incubated for 18 hrs by two fold broth microdilution assay
Pseudomonas aeruginosa [31] = assay: Antibiotic adjuvant activity against Pseudomonas aeruginosa PAO1 assessed as fold potentiation incubated for 18 hrs in presence of minocycline by two fold broth microdilution checkerboard assay
Pseudomonas aeruginosa [32] = assay: Antibiotic adjuvant activity against multi-drug resistant Pseudomonas aeruginosa clinical isolate 114228 assessed as inhibition of bacterial growth incubated for 18 hrs in presence of Rifampicin by two fold broth microdilution checkerboard assay
Pseudomonas aeruginosa [33] = assay: Antibiotic adjuvant activity against multi-drug resistant Pseudomonas aeruginosa clinical isolate PA262 assessed as fractional inhibitory concentration index incubated for 18 hrs in presence of Rifampicin by two fold broth microdilution checkerboard assay
Escherichia coli [34] = assay: Antibacterial activity against multi-drug resistant Escherichia coli clinical isolate 94393 assessed as inhibition of bacterial growth incubated for 18 hrs by two fold broth microdilution assay
Acinetobacter baumannii [35] = assay: Antibiotic adjuvant activity against Acinetobacter baumannii ATCC 17978 assessed as fold potentiation incubated for 18 hrs in presence of rifampicin and CAMHB Na+ media by two fold broth microdilution checkerboard assay

In the case of `Cl.NC[C@H]1O[C@H](O[C@H]2[C@H](OCc3ccccc3)[C@@H](O[C@H]3O[C@H](COCc4ccccc4)[C@@H](OCc4ccccc4)[C@H](N)[C@H]3OCc3ccccc3)[C@H](N)C[C@@H]2N)[C@H](N)C[C@@H]1OCc1ccccc1`, the “fold change (FC)” value (Pseudomonas aeruginosa [1]) is reported as 1, the MIC (Pseudomonas aeruginosa [2]) is reported as 16 µg/mL and the MIC (Escherichia coli [3]) is reported as 0.125 µg/mL. The MIC (Acinetobacter baumannii [4]) was 0.004 µg/mL, the “fractional inhibitory concentration index (FICI)” value (Escherichia coli [5]) was 0.313 and the “fold change (FC)” value (Escherichia coli [6]) was “>=2”. For the same compound, the MIC (Pseudomonas aeruginosa [7]) was 128 µg/mL, the “fold change (FC)” value (Pseudomonas aeruginosa [8]) was 1 and the MIC (Pseudomonas aeruginosa [9]) was 8 µg/mL. For the same compound, the MIC (Acinetobacter baumannii [10]) was 16 µg/mL, the MIC (Pseudomonas aeruginosa [11]) was 128 µg/mL and the “fold change (FC)” value (Escherichia coli [12]) was 32. For the same compound, the “fractional inhibitory concentration index (FICI)” value (Pseudomonas aeruginosa [13]) was 1.063, the “fractional inhibitory concentration index (FICI)” value (Escherichia coli [14]) was 0.094 and the MIC (Pseudomonas aeruginosa [15]) was 64 µg/mL. The “fold change (FC)” value (Pseudomonas aeruginosa [16]) was 1, the “fractional inhibitory concentration index (FICI)” value (Escherichia coli [17]) was 0.063 and the “fold change (FC)” value (Pseudomonas aeruginosa [18]) was 4. For the same compound, the “fold change (FC)” value (Pseudomonas aeruginosa [19]) was 1, the MIC (Escherichia coli [20]) was 0.031 µg/mL and the MIC (Acinetobacter baumannii [21]) was 0.004 µg/mL. The MIC (Acinetobacter baumannii [22]) was 8 µg/mL, the “fold change (FC)” value (Acinetobacter baumannii [23]) was 2048 and the MIC (Pseudomonas aeruginosa [24]) was 8 µg/mL. For the same compound, the MIC (Acinetobacter baumannii [25]) was 4 µg/mL, the “fractional inhibitory concentration index (FICI)” value (Pseudomonas aeruginosa [26]) was 1.063 and the “fold change (FC)” value (Acinetobacter baumannii [27]) was 8. For the same compound, the “fractional inhibitory concentration index (FICI)” value (Escherichia coli [28]) was 0.188, the MIC (Pseudomonas aeruginosa [29]) was 16 µg/mL and the MIC (Enterobacterales) was no more than 4 µg/mL. The MIC (Pseudomonas aeruginosa [30]) was 64 µg/mL, the “fold change (FC)” value (Pseudomonas aeruginosa [31]) was 64 and the MIC (Pseudomonas aeruginosa [32]) was 8 µg/mL. The “fractional inhibitory concentration index (FICI)” value (Pseudomonas aeruginosa [33]) was 1.063, the MIC (Escherichia coli [34]) was 32 µg/mL and the fold change (FC) (Acinetobacter baumannii [35]) was 256.
